Measured values reported in article PMC7374424, “Ion-Selective Carbon Nanotube Field-Effect Transistors for Monitoring Drug Effects on Nicotinic Acetylcholine Receptor Activation in Live Cells” (Sensors (Basel, Switzerland), 2020).
pKd: −log10 of the molar value. Read-outs that look alike come from different tables or passages of the source.

Legend:
[1] = system: nicotinic acetylcholine receptor (nAChR), native in PC12 cells, subunits not specified; assay: inhibition of […] nicotine-induced K+ release from PC12 cells, ion-selective CNT-FET; assay type: cell-based, Rattus norvegicus
[2] = system: nicotinic acetylcholine receptor (nAChR), native in PC12 cells, subunits not specified; assay: agonist-induced K+ release from PC12 cells by ion-selective CNT-FET, Hill fit; assay type: cell-based, Rattus norvegicus
[3] = system: nicotinic acetylcholine receptor (nAChR), native in PC12 cells, subunits not specified

Row | SMILES | IC50 [1] | also measured
1 | C[N+](C)(C)CCCCCC[N+](C)(C)C [HB, hexamethonium] | 4.58 ± 0.85 pIC50 | 
3 | CNC1(C)C2CCC(C2)C1(C)C (stereo not shown) [MH, mecamylamine] | 5.74 ± 0.54 pIC50 | 
